According to patent US9566254B2, “Inhibitors and methods of inhibiting bacterial and viral pathogens” (priority 2010, dated 2017):
Where a name gives a salt, the structure may show the parent alone.

Experiments:
Experiment in all cases: microbe, parasite or virus in culture
Assay type in all cases: cell-based
La Crosse virus (LACV) = conditions: La Crosse virus, Vero, read-out: Avg Activity (LACV)
Chlamydophila caviae = conditions: Chlamydia caviae, Vero, read-out: Avg Activity (C. Caviae)
vaccinia virus = conditions: Orthopoxvirus vaccinia, read-out: Avg Activity (VV)

Row | SMILES | EC50 (La Crosse virus (LACV)) | EC50 (Chlamydophila caviae) | EC50 (vaccinia virus)
1 | CC(C)(C)c1ccc(C(=O)NC(=S)Nc2ccc(NC(=O)c3ccccc3Cl)c(O)c2)cc1 [Compound 2, N-[4-[(4-tert-butylbenzoyl)-carbamothioylamino]-2-hydroxy-phenyl]-2-chloro-benzamide] | < 1 µM | < 1 µM | < 1 µM
2 | COc1cc(NC(=S)NC(=O)c2ccc(C(C)(C)C)cc2)ccc1N(C)c1ccccc1Cl [Compound 3, 4-tert-butyl-N-[[4-[(2-chlorophenyl)-methylamino]-3-methoxy-phenyl]-carbamothioyl]-benzamide] | < 1 µM | < 1 µM | < 1 µM
3 | CC(C)(C)c1ccc(C(=O)NC(=S)Nc2ccc(N)cc2Cl)cc1 [Compound 4, N-[(4-amino-2-chloro-phenyl)carbamothioyl]-4-tert-butyl-benzamide hydrochloride] | < 1 µM | < 1 µM | < 1 µM
4 | CNc1ccc(NC(=S)NC(=O)c2ccc(C(C)(C)C)cc2)c(Cl)c1 [Compound 5, 4-tert-butyl-N-[[2-chloro-4-(methylamino)phenyl]-carbamothioyl]benzamide hydrochloride] | < 1 µM | < 1 µM | < 1 µM
5 | CC(C)(C)c1ccc(C(=O)NC(=S)Nc2ccc(NC(=O)c3ccccc3)cc2Cl)cc1 [Compound 7, N-[(4-benzamido-2-chloro-phenyl)carbamothioyl]-4-tert-butyl-benzamide] | < 1 µM | < 1 µM | < 1 µM
6 | COc1cc(NC(=S)NC(=O)c2ccc(C(C)(C)C)cc2)ccc1NC(=S)c1ccccc1Cl [Compound 8, 4-tert-butyl-N-[[4-[(2-chlorobenzene-carbothioyl)amino]-3-methoxy-phenyl]-carbamothioyl]benzamide] | < 1 µM | < 1 µM | < 1 µM
7 | CCS/C(=N\C(=O)c1ccc(C(C)(C)C)cc1)Nc1cc(C)ccc1Cl [Compound 9, (NZ)-4-tert-butyl-N-[(2-chloro-5-methyl-anilino)-ethylsulfanyl-methylene]benzamide] | < 1 µM | < 1 µM | < 1 µM
8 | CCS/C(=N\C(=O)c1ccc(C(C)(C)C)cc1)Nc1ccc(NC(=O)c2ccccc2Cl)c(OC)c1 [Compound 10, N-[4-[[(Z)—N-(4-tert-butylbenzoyl)-C-ethylsulfanyl-carbonimidoyl]amino]-2-methoxy-phenyl]-2-chloro-benzamide] | < 1 µM | 1 to 10 µM | < 1 µM
9 | COc1cc(NC(=S)NC(=O)c2ccc(C(C)(C)C)cc2)ccc1NC(=O)c1ccc(CN)cc1 [Compound 12, hydrochloride] | > 25 µM | < 1 µM | < 1 µM
10 | Cc1cccc(Cl)c1NC(=S)NC(=O)c1ccc(C(C)(C)C)cc1 [Compound 13, 4-tert-butyl-N-[(2-chloro-6-methyl-phenyl)-carbamothioyl]benzamide] | < 1 µM | < 1 µM | 1 to 10 µM
11 | CCS/C(=N\C(=O)c1ccc(C(C)(C)C)cc1)Nc1ccccc1Cl [Compound 14, (NZ)-4-tert-butyl-N-[(2-chloroanilino)-ethylsulfanyl-methylene]benzamide] | < 1 µM | < 1 µM | 1 to 10 µM
12 | CC(C)(C)c1ccc(C(=O)NC(=S)Nc2cccc(C(F)(F)F)c2Cl)cc1 [Compound 15, 4-tert-butyl-N-[[2-chloro-3-(trifluoromethyl)phenyl]-carbamothioyl]benzamide] | < 1 µM | < 1 µM | 1 to 10 µM
13 | COc1cc(NC(=S)NC(=O)c2ccc(C(C)(C)C)cc2)ccc1NS(=O)(=O)c1cccc2c(N(C)C)cccc12 [Compound 16, 4-tert-butyl-N-[[4-[[5-(dimethylamino)-1-naphthyl]sulfonylamino]-3-methoxy-phenyl]-carbamothioyl]benzamide] | 1 to 10 µM | < 1 µM | 1 to 10 µM
14 | Cc1cccc(NC(=S)NC(=O)c2ccc(C(C)(C)C)cc2)c1Cl [Compound 19, 4-tert-butyl-N-[(2-chloro-3-methyl-phenyl)-carbamothioyl]benzamide] | 1 to 10 µM | < 1 µM | 1 to 10 µM
15 | CN(C)c1ccc(NC(=S)NC(=O)c2ccc(C(C)(C)C)cc2)c(Cl)c1 [Compound 22, 4-tert-butyl-N-[[2-chloro-4-(dimethylamino)phenyl]-carbamothioyl]benzamide hydrochloride] | 1 to 10 µM | < 1 µM | 1 to 10 µM
16 | COc1cc(NC(=S)NC(=N)c2ccc(C(C)(C)C)cc2)ccc1NC(=O)c1ccccc1Cl [Compound 23, N-[4-[(4-tert-butylbenzene-carboximidoyl)-carbamothioylamino]-2-methoxy-phenyl]-2-chloro-benzamide] | 1 to 10 µM | < 1 µM | 1 to 10 µM
17 | COc1cc(NC(=S)NC(=O)c2ccc(C(C)(C)C)cc2)ccc1NC(=N)c1ccccc1Cl [Compound 24, 4-tert-butyl-N-[[4-[(2-chlorobenzene-carboximidoyl)amino]-3-methoxy-phenyl]-carbamothioyl]benzamide] | 1 to 10 µM | < 1 µM | 1 to 10 µM

Row | SMILES | EC50 (La Crosse virus (LACV)) | EC50 (Chlamydophila caviae) | EC50 (vaccinia virus)
18 | COc1cc(NC(=S)NC(=O)c2ccc(C(C)(C)C)cc2)ccc1NC(=O)CCCCC1SCC2NC(=O)NC21 (centres unmarked) [Compound 25, 4-tert-butyl-N-[[3-methoxy-4-[5-(2-oxo-1,3,3a,4,6,6a-hexahydrothieno[3,4-d]imidazol-4-yl)-pentanoylamino]phenyl]-carbamothioyl]benzamide] | > 25 µM | 1 to 10 µM | 1 to 10 µM
19 | COc1cc(NC(=S)NC(=O)C2CCCCC2)ccc1NC(=O)c1ccccc1Cl [Compound 26, 2-chloro-N-[4-(cyclohexanecarbonyl-carbamothioylamino)-2-methoxy-phenyl]benzamide] | > 25 µM | 10 to 25 µM | 1 to 10 µM
20 | COc1cc(NC(=S)NC(=O)c2ccc(C(C)(C)C)cc2)ccc1NC(=O)c1cccc(CN)c1 [Compound 27, 3-(aminomethyl)-N-[4-[(4-tert-butylbenzoyl)-carbamothioylamino]-2-methoxy-phenyl]benzamide hydrochloride] | > 25 µM | < 1 µM | 1 to 10 µM
21 | COc1cc(NC(=S)NC(=O)c2ccc(C(C)(C)C)cc2)ccc1NC(=O)c1ccccc1N [Compound 28, 2-amino-N-[4-[(4-tert-butylbenzoyl)-carbamothioylamino]-2-methoxy-phenyl]benzamide] | > 25 µM | < 1 µM | 1 to 10 µM
22 | CC(C)(C)c1ccc(C(=O)NC(=S)Nc2cc(OC(F)(F)F)ccc2Cl)cc1 [Compound 29, 4-tert-butyl-N-[[2-chloro-5-(trifluoromethoxy)phenyl]-carbamothioyl]benzamide] | > 25 µM |  | 1 to 10 µM
23 | COc1cc(NC(=S)NC(=O)c2ccc(C(C)(C)C)cc2)ccc1NC(=O)c1cccnc1 [Compound 30, N-[4-[(4-tert-butylbenzoyl)-carbamothioylamino]-2-methoxy-phenyl]pyridine-3-carboxamide] |  | < 1 µM | 1 to 10 µM
24 | COc1cc(NC(=S)NC(=O)c2ccc(C(C)(C)C)cc2)ccc1NC(=O)c1ccncc1 [Compound 31, N-[4-[(4-tert-butylbenzoyl)-carbamothioylamino]-2-methoxy-phenyl]pyridine-4-carboxamide] |  | < 1 µM | 1 to 10 µM
25 | COc1cc(NC(=S)NC(=O)c2ccc(C(C)(C)C)cc2)ccc1NC(=O)c1ccc(N)cc1 [Compound 32, N-[[4-[(4-aminobenzoyl)amino]-3-methoxy-phenyl]-carbamothioyl]-4-tert-butyl-benzamide hydrochloride] | 10 to 25 µM | < 1 µM | 10 to 25 µM
26 | CCNC(=S)Nc1ccc(NC(=O)c2ccccc2Cl)c(OC)c1 [Compound 33, 2-chloro-N-[4-(ethylcarbamo-thioylamino)-2-methoxy-phenyl]benzamide] | > 25 µM | > 25 µM | 10 to 25 µM
27 | CCN(C(=S)NC(=O)c1ccc(C(C)(C)C)cc1)c1ccc(NC(=O)c2ccccc2Cl)c(OC)c1 [Compound 34, N-[4-[(4-tert-butylbenzoyl)-carbamothioyl-ethyl-amino]-2-methoxy-phenyl]-2-chloro-benzamide] | > 25 µM | 1 to 10 µM | 10 to 25 µM
28 | COC(=O)CC(=O)Nc1ccc(NC(=S)NC(=O)c2ccc(C(C)(C)C)cc2)cc1OC [Compound 35, methyl 3-[4-[(4-tert-butylbenzoyl)carbamo-thioylamino]-2-methoxy-anilino]-3-oxo-propanoate] | > 25 µM | 1 to 10 µM | 10 to 25 µM
29 | CC(C)(C)c1ccc(C(=O)NC(=S)Nc2ccc(Nc3cccnc3)cc2)cc1 [Compound 36, 4-tert-butyl-N-[[4-(3-pyridylamino)phenyl]-carbamothioyl]benzamide hydrochloride] | > 25 µM | < 1 µM | 10 to 25 µM
30 | COc1cc(NC(=S)NC(=O)c2ccc(C(C)(C)C)cc2)ccc1NC(N)=O [Compound 37, 4-tert-butyl-N-[(3-methoxy-4-ureido-phenyl)carbamothioyl]-benzamide] | 1 to 10 µM |  | > 25 µM
31 | CC(C)(C)c1ccc(C(=O)NC(=S)Nc2ccc(Nc3ccncc3)cc2)cc1 [Compound 38, 4-tert-butyl-N-[[4-(4-pyridylamino)phenyl]-carbamothioyl]benzamide hydrochloride] | 1 to 10 µM | > 25 µM | > 25 µM
32 | Cc1ccc(C(=O)NC(=S)Nc2ccc(NC(=O)c3ccc(C(C)(C)C)cc3)cc2)cc1 [Compound 41, N-[[4-[(4-tert-butylbenzoyl)amino]phenyl]carbamothioyl]-4-methyl-benzamide] | < 1 µM | < 1 µM | < 1 µM
33 | Cc1ccccc1NC(=S)NC(=O)c1ccc(C(C)(C)C)cc1 [Compound 42, 4-tert-butyl-N-(o-tolylcarbamothioyl)-benzamide] | < 1 µM | < 1 µM | < 1 µM
